The values below come from patent publication US20230192657A1, “1,2,4-TRIAZOLINONE CB1 INHIBITORS” (Goldfinch Bio, Inc., priority 2020, published 2023).

The test addresses CB1 receptor (Homo sapiens, UniProt P21554). The test can be described thus: CB1 cAMP Antagonist Assay (LANCE Ultra cAMP kit). In kind it is cell-based. The following applies: Flp-In CHO cells stably expressing the CB1 receptor; forskolin and CP55940 agonist at EC90; cAMP FRET readout. The text has this: CB1 cAMP Antagonist Assay
LANCE Ultra cAMP kit (Perkin Elmer) was used to quantitate the amount of 3′,5′-cyclic adenosine monophosphate (cAMP) produced in Flp-In CHO (Invitrogen) cells stably expressing the CB1 receptor.
Forskolin was initially titrated to determine the response of the cells. The EC90 of forskolin was used for compound testing. CP55940 was titrated and used with EC90 of forskolin to determine the level of agonist stimulation. EC90 of the agonist was used for subsequent compound testing.
Forskolin (Sigma), CP55940 (Cayman Chemicals), and AM251 (MCE) were diluted in 100% DMSO, starting at 100 mM, 1 mM, and 1 mM respectively, in 3-fold serial dilutions. Test compounds were diluted in 100% DMSO starting from 10 mM, 3-fold dilutions. The cAMP assay buffer contains 1x Hank’s Buffered Saline Solution with Ca^2+ and Mg^2+ (Invitrogen), 5.3 mM HEPES (Invitrogen), 0.05% BSA, 0.5 mM IBMX (Sigma).
For all assays, cells were harvested, counted, and diluted in cAMP assay buffer to 1× 10^5 cells/mL. Only cells with viability >85% were used for the assay. Cells were seeded at 1000 cells/well in 384-well plates and 10 nL/well AM251 or test compound was added and incubated at 37° C. for 10 min. […] To detect the amount of cAMP produced, 5 µL of a 100x diluted stock of Eu-cAMP tracer and 5 µL of 200x diluted stock of Ulight-anti-cAMP were added to each well, and the plate incubated at 25° C. for 15 min. The FRET signal was read using an EnVision microplate reader (λex=320 nm, λem=615 nm and 665 nm).
The IC50 is determined by fitting the percentage of inhibition as a function of compound concentrations with the Hill equation, using a 4-parameter fit in either XLfit or GraphPad Prism.

Bounds are passed on as bounds.

Chain of CB1 receptor (P21554 whole entry): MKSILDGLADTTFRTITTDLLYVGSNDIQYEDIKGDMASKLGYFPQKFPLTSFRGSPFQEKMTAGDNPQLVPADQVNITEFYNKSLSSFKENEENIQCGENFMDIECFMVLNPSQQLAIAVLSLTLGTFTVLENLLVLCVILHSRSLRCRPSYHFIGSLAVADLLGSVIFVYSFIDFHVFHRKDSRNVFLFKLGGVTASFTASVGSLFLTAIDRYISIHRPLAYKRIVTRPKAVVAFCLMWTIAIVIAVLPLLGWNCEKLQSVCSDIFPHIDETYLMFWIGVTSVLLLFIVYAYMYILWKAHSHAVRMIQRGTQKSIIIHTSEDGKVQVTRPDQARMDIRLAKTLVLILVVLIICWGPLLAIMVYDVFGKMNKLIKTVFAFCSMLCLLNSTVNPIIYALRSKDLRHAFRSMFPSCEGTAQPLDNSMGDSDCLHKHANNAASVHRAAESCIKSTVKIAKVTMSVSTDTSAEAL

In turn, `O=c1n(Cc2ccc(Cl)cc2)nc(N2CC3(CCc4ccccc43)C(c3ccc(Cl)cc3)=N2)n1CCO` (stereo in doubt) [Compound 118, 3-[(1R)-3-(4-chlorophenyl)-1,2,3,5-tetrahydrospiro[indene-1,4-pyrazol]-1-yl]-1-[(4-chlorophenyl)methyl]-4-(2-hydroxyethyl)-4,5-dihydro-1H-1,2,4-triazol-5-one] yielded a half-inhibitory concentration (IC50) of 100 to 1000 nM. The same measure for `COCCn1c(N2CC3(CCc4ccccc43)C(c3ccc(Cl)cc3)=N2)nn(Cc2ccc(Cl)cc2)c1=O` (stereo in doubt) [Compound 120, 3-[(1R)-3-(4-chlorophenyl)-1,2,3,5-tetrahydrospiro[indene-1,4-pyrazol]-1-yl]-1-[(4-chlorophenyl)methyl]-4-(2-methoxyethyl)-4,5-dihydro-1H-1,2,4-triazol-5-one]: 1000 to 5000 nM. The same measure for `O=c1n(Cc2ccc(Cl)cc2)nc(N2CC3(CCc4ccccc43)C(c3ccc(Cl)cc3)=N2)n1CCO` (stereo in doubt) [Compound 121, 3-[(1S)-3-(4-chlorophenyl)-1,2,3,5-tetrahydrospiro[indene-1,4-pyrazol]-1-yl]-1-[(4-chlorophenyl)methyl]-4-(2-hydroxyethyl)-4,5-dihydro-1H-1,2,4-triazol-5-one]: 100 to 1000 nM; for `COCCn1c(N2CC3(CCc4ccccc43)C(c3ccc(Cl)cc3)=N2)nn(Cc2ccc(Cl)cc2)c1=O` (stereo in doubt) [Compound 123, 3-[(1S)-3-(4-chlorophenyl)-1,2,3,5-tetrahydrospiro[indene-1,4-pyrazol]-1-yl]-1-[(4-chlorophenyl)methyl]-4-(2-methoxyethyl)-4,5-dihydro-1H-1,2,4-triazol-5-one]: 100 to 1000 nM. The same measure for `NC(=O)CCn1c(N2CC3(CCc4ccccc43)C(c3ccc(Cl)cc3)=N2)nn(Cc2ccc(Cl)cc2)c1=O` (stereo in doubt) [Compound 132, 3-[3-[(1R)-3-(4-chlorophenyl)-1,2,3,5-tetrahydrospiro[indene-1,4-pyrazol]-1-yl]-1-[(4-chlorophenyl)methyl]-5-oxo-4,5-dihydro-1H-1,2,4-triazol-4-yl]propanamide]: 1000 to 5000 nM.

As for `NC(=O)CCn1c(N2CC3(CCc4ccccc43)C(c3ccc(Cl)cc3)=N2)nn(Cc2ccc(Cl)cc2)c1=O` (stereo in doubt) [Compound 133, 3-[3-[(1S)-3-(4-chlorophenyl)-1,2,3,5-tetrahydrospiro[indene-1,4-pyrazol]-1-yl]-1-[(4-chlorophenyl)methyl]-5-oxo-4,5-dihydro-1H-1,2,4-triazol-4-yl]propanamide], the IC50 fell in the range of 1000 to 5000 nM. `Cn1c(N2CC3(CCc4ccccc43)C(c3ccc(Cl)cc3)=N2)nn(CC2CCCCC2)c1=O` (stereo in doubt) [Compound 139, 3-[(1S)-3-(4-chlorophenyl)-1,2,3,5-tetrahydrospiro[indene-1,4-pyrazol]-1-yl]-1-(cyclohexylmethyl)-4-methyl-4,5-dihydro-1H-1,2,4-triazol-5-one] registered a half-maximal inhibitory concentration (IC50) of 100 to 1000 nM. With `Cn1c(N2CC3(CCc4ccccc43)C(c3ccc(Cl)cc3)=N2)nn(CC2CCCCC2)c1=O` (stereo in doubt) [Compound 140, 3-[(1R)-3-(4-chlorophenyl)-1,2,3,5-tetrahydrospiro[indene-1,4-pyrazol]-1-yl]-1-(cyclohexylmethyl)-4-methyl-4,5-dihydro-1H-1,2,4-triazol-5-one], the half-inhibitory concentration (IC50) was 1000 to 5000 nM. Then `C[C@@H](c1ccc(Cl)cc1)n1nc(N2CC(c3ccccc3)C(c3ccc(Cl)cc3)=N2)n(CC(N)=O)c1=O` (stereo in doubt) [Compound 150, 2-[3-[(4S)-3-(4-chlorophenyl)-4-phenyl-4,5-dihydropyrazol-1-yl]-1-[(1S)-1-(4-chlorophenyl)ethyl]-5-oxo-1,2,4-triazol-4-yl]acetamide], with 100 to 1000 nM. The same measure for `Cn1c(N2C[C@@H](c3ccccc3)C(c3ccc(Cl)cc3)=N2)nn(-c2ccc(Cl)cc2)c1=O` [Compound 100]: over 5000 nM; for `Cn1c(N2C[C@H](c3ccccc3)C(c3ccc(Cl)cc3)=N2)nn(-c2ccc(Cl)cc2)c1=O` [Compound 101, 1-(4-chlorophenyl)-3-[(4S)-3-(4-chlorophenyl)-4-phenyl-4,5-dihydro-1H-pyrazol-1-yl]-4-methyl-4,5-dihydro-1H-1,2,4-triazol-5-one]: under 100 nM; for `Cn1c(N2C[C@H](c3ccccc3)C(c3ccc(Cl)cc3)=N2)nn(Cc2ccc(Cl)cc2)c1=O` [Compound 102]: 100 to 1000 nM. `Cn1c(N2C[C@@H](c3ccccc3)C(c3ccc(Cl)cc3)=N2)nn(Cc2ccc(Cl)cc2)c1=O` [Compound 103] displayed a concentration for half-maximal inhibition (IC50) of under 100 nM. In turn, `CCOC(=O)Cn1c(N2C[C@H](c3ccccc3)C(c3ccc(Cl)cc3)=N2)nn(-c2ccc(Cl)cc2)c1=O` [Compound 104, ethyl 2-[1-(4-chlorophenyl)-3-[(4S)-3-(4-chlorophenyl)-4-phenyl-4,5-dihydro-1H-pyrazol-1-yl]-5-oxo-4,5-dihydro-1H-1 ,2,4-triazol-4-yl]acetate] had a concentration for half-maximal inhibition (IC50) of under 100 nM. Then `CCOC(=O)Cn1c(N2C[C@@H](c3ccccc3)C(c3ccc(Cl)cc3)=N2)nn(-c2ccc(Cl)cc2)c1=O` [Compound 105, ethyl 2-[1-(4-chlorophenyl)-3-[(4R)-3-(4-chlorophenyl)-4-phenyl-4,5-dihydro-1H-pyrazol-1-yl]-5-oxo-4,5-dihydro-1H-1,2,4-triazol-4-yl]acetate], with under 100 nM.

`NC(=O)Cn1c(N2C[C@@H](c3ccccc3)C(c3ccc(Cl)cc3)=N2)nn(Cc2ccc(Cl)cc2)c1=O` [Compound 106, 2-[3-[(4R)-3-(4-chlorophenyl)-4-phenyl-4,5-dihydro-1H-pyrazol-1-yl]-1-[(4-chlorophenyl)methyl]-5-oxo-4,5-dihydro-1H-1,2,4-triazol-4-yl]acetamide] came in with a concentration for half-maximal inhibition (IC50) of 1000 to 5000 nM. Then `NC(=O)Cn1c(N2C[C@H](c3ccccc3)C(c3ccc(Cl)cc3)=N2)nn(Cc2ccc(Cl)cc2)c1=O` [Compound 107, 2-[3-[(4S)-3-(4-chlorophenyl)-4-phenyl-4,5-dihydro-1H-pyrazol-1-yl]-1-[(4-chlorophenyl)methyl]-5-oxo-4,5-dihydro-1H-1,2,4-triazol-4-yl]acetamide], with under 100 nM; and `NC(=O)Cn1c(N2C[C@@H](c3ccccc3)C(c3ccc(Cl)cc3)=N2)nn(-c2ccc(Cl)cc2)c1=O` [Compound 108, 2-[1-(4-chlorophenyl)-3-[(4R)-3-(4-chlorophenyl)-4-phenyl-4,5-dihydro-1H-pyrazol-1-yl]-5-oxo-4,5-dihydro-1H-1 ,2,4-triazol-4-yl]acetamide], with under 100 nM; and `Cn1c(N2C[C@]3(CCc4ccccc43)C(c3ccc(Cl)cc3)=N2)nn(-c2ccc(Cl)cc2)c1=O` [Compound 109], with over 5000 nM. Then `COCCn1c(N2C[C@]3(CCc4ccccc43)C(c3ccc(Cl)cc3)=N2)nn(-c2ccc(Cl)cc2)c1=O` [Compound 110], with over 5000 nM. The same measure for `NC(=O)Cn1c(N2C[C@H](c3ccccc3)C(c3ccc(Cl)cc3)=N2)nn(-c2ccc(Cl)cc2)c1=O` [Compound 111, (S)-2-(1-(4-chlorophenyl)-3-(3-(4-chlorophenyl)-4-phenyl-4,5-dihydro-1H-pyrazol-1-yl)-5-oxo-1,5-dihydro-4H-1,2,4-triazol-4-yl)acetamide]: under 100 nM; for `O=c1n(-c2ccc(Cl)cc2)nc(N2C[C@@]3(CCc4ccccc43)C(c3ccc(Cl)cc3)=N2)n1CCO` [Compound 112]: over 5000 nM. Molecule `Cn1c(N2C[C@@]3(CCc4ccccc43)C(c3ccc(Cl)cc3)=N2)nn(Cc2ccc(Cl)cc2)c1=O` [Compound 113] registered an IC50 of 1000 to 5000 nM. In turn, `O=c1n(-c2ccc(Cl)cc2)nc(N2C[C@]3(CCc4ccccc43)C(c3ccc(Cl)cc3)=N2)n1CCO` [Compound 114, 1-(4-chlorophenyl)-3-[(1R)-3-(4-chlorophenyl)-1,2,3,5-tetrahydrospiro[indene-1,4-pyrazol]-1-yl]-4-(2-hydroxyethyl)-4,5-dihydro-1H-1,2,4-triazol-5-one] gave a 50% inhibitory concentration (IC50) of 100 to 1000 nM. In turn, `Cn1c(N2C[C@]3(CCc4ccccc43)C(c3ccc(Cl)cc3)=N2)nn(Cc2ccc(Cl)cc2)c1=O` [Compound 115, 3-[(1R)-3-(4-chlorophenyl)-1,2,3,5-tetrahydrospiro[indene-1,4-pyrazol]-1-y1]-1-[(4-chlorophenyl)methyl]-4-methyl-4,5-dihydro-1H-1,2,4-triazol-5-one] had a half-inhibitory concentration (IC50) of 1000 to 5000 nM. The same measure for `Cn1c(N2C[C@@]3(CCc4ccccc43)C(c3ccc(Cl)cc3)=N2)nn(-c2ccc(Cl)cc2)c1=O` [Compound 116]: over 5000 nM. Turning to `COCCn1c(N2C[C@@]3(CCc4ccccc43)C(c3ccc(Cl)cc3)=N2)nn(-c2ccc(Cl)cc2)c1=O` [Compound 117], the IC50 was over 5000 nM. The same measure for `NC(=O)Cn1c(N2C[C@@]3(CCc4ccccc43)C(c3ccc(Cl)cc3)=N2)nn(-c2ccc(Cl)cc2)c1=O` [Compound 119]: over 5000 nM.
